The subject of the assay is K12877-001-R-J1-PDC complex spheroid viability. In words: Anticancer human tumor K12877-001-R-J1-PDC patient-derived lung adenocarcinoma cell line growth inhibition [RAS]. The following applies: for viability, T/C: stronger effect = lower value. The text has this:
RAS pathway inhibitors in Combinations in Complex Spheroids
A high-throughput screen of multi-cell type tumor spheroids was designed to identify active combinations of RAS pathway inhibitors and targeted small molecules. Complex spheroids include a stromal component modeled by human endothelial cells (HUVEC) and fibroblasts modeled by human mesenchymal stem cells (MSCs). The concentration ranges selected for each drug and investigational agent were based upon clinically achievable concentrations if the clinical Cmax of the agent was known.
Compounds. The drugs and investigational agents: abemaciclib (NSC768073), cobimetinib (NSC768068), divarasib (GDC6063, NSC841802), docetaxel (NSC628503), GDC-1971 (RLY-1971, NSC841576), gemcitabine (NSC613327), inavolisib (NSC800729), ipatasertib (NSC767898), KB-0742 (NSC834161), MRTX-1133 (NSC836407), osimertinib (NSC779217), RMC-4630 (NSC839698), RMC-6236 (NSC851965), RMC-6291 (NSC852671), Ro-3306 (NSC812927), sapanisertib (NSC764658), SN-38 (NSC673596), staurosporine (NSC755774), SY5609 (NSC837396), and tovorafenib (DAY101, NSC766906), were obtained from the National Cancer Institute (NCI) Developmental Therapeutics Program Chemical Repository. The FDA-approved anticancer drug set is available from the NCI Developmental Therapeutics Program. […] The stock solutions were prepared in dimethyl sulfoxide (DMSO, Sigma-Aldrich, St. Louis, MO, cat. D2650) at 800-fold the tested concentration and stored at -70 degrees C prior to their use. All drugs and investigational agents were tested over a range starting from a high concentration at or near the clinical Cmax and decreasing in half-log increments. If the clinical Cmax for an agent had not been determined, the highest concentration tested was 10 microM.
Cell Culture. All cells were maintained in an incubator at 37 degrees C and 5% CO2 with 95% humidity. The PDC lines were cultured according to standard operating procedures established by the NCI PDMR. All PDCs were thawed and cultured in Matrigel-coated flasks prepared with a working solution of 1X Ham's F-12 nutrient mix, without supplementation (Invitrogen, Waltham, MA, cat. 11765054), 100 U/mL penicillin-streptomycin (Invitrogen, cat. 15140122), and 2.5% Matrigel (Corning Inc., Corning, NY, cat. 354248) for the first three passages. The 362531-283-R-J2-PDC and 782815-120-R-J1-PDC lines were cultured in 6C/Colon 1B media, which includes advanced DMEM/F-12 (Thermo Fisher Scientific, cat. 12634028), 10 mM HEPES (Thermo Fisher Scientific, cat. 15630080), 1X GlutaMAX supplement (Thermo Fisher Scientific, cat. 35050061), 0.1 mg/mL primocin (InvivoGen, San Diego, CA, cat. ant-pm-2), 10% defined fetal bovine serum, heat inactivated (HyClone Laboratories Inc., Logan, UT, cat. SH30070.03HI), 50% L-WRN conditioned media (ATCC, cat. CRL-3276), 1.25 mM N-Acetyl-L-cysteine (Sigma-Aldrich, cat. A9165), 10 mM nicotinamide (Sigma-Aldrich, cat. N0636), 1X B-27 supplement (Thermo Fisher Scientific, cat. 17504044), 1X N-2 supplement (Thermo Fisher Scientific, cat. 17502048), 50 ng/mL human EGF (Thermo Fisher Scientific, cat. PHG0311), and 10 microM Y-27632 dihydrochloride (Tocris Bioscience, cat. 1254). The K12877-001-R-J1-PDC line was cultured in 6I media, which includes all 6C/Colon 1B media plus 10 ng/mL human FGF-10 (PeproTech, cat. 100-26), 1 ng/mL human FGF-2 (PeproTech, cat. 100-18B), 1 µM prostaglandin E2 (Tocris Bioscience, cat. 2296), […] hydrocortisone (Sigma-Aldrich, cat. H4001), and […] bovine insulin (Sigma-Aldrich, cat. I6634). The K86415-001-R-J1-PDC line was cultured in 6D media, which includes all 6C/Colon 1B media components minus the L-WRN conditioned media. The 485176-168-R4-J1-PDC was cultured in PANC media, which includes all 6C/Colon 1B media plus 100 ng/mL human FGF-10 (PeproTech, cat. 100-26), 500 nM SB-431542 (Selleckchem, cat. S1067), and 10 nM gastrin (Tocris Bioscience, cat. 3006). […]

The term viability, T/C denotes the ratio of treated to control. The term IC50 denotes the midpoint of a concentration-inhibition curve.

Where “and” joins values, the source holds several entries; their conditions need not be identical. Equal values may be shown once.
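Further: spheroids exposed to agents for one week before readout.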

As for `C#Cc1c(F)ccc2cc(O)cc(-c3ncc4c(N5CC6CCC(C5)N6)nc(OCC56CCCN5CC(F)C6)nc4c3F)c12` (configuration not stated), the viability, T/C by setting is: (compound 0.0316 µM) 105% [middle of 8 runs]; (compound 0.1 µM) 107% [middle of 8 runs]; (compound 0.316 µM) 110% [middle of 8 runs]; (compound 1 µM) 110% [middle of 8 runs]; (compound 3.16 µM) 101% [middle of 8 runs]; (compound 10 µM) 96.5% [middle of 8 runs]. Also, under “compound alone, run of 09/09/2024”, the IC50 was more than 10 µM.

`CC(=O)OC12COC1CC(O)C1(C)C(=O)C(O)C3=C(C)C(OC(=O)C(O)C(NC(=O)OC(C)(C)C)c4ccccc4)CC(O)(C(OC(=O)c4ccccc4)C21)C3(C)C` (configuration not stated): the viability, T/C by setting is: (compound 0.0316 µM) 8.58% [middle of 4 runs]; (compound 0.1 µM) 6.5% [middle of 4 runs]; (compound 0.316 µM) 5.06% [middle of 4 runs]; (compound 1 µM) 4.96% [middle of 4 runs]; (compound 3.16 µM) 6.68% [middle of 4 runs]; (compound 10 µM) 15% [middle of 4 runs]. In addition, the IC50 (curve of compound) was less than 0.0316 µM.

As for `CC(C)NCC(C(=O)N1CCN(c2ncnc3c2C(C)CC3O)CC1)c1ccc(Cl)cc1` (configuration not stated), the viability, T/C runs as follows: (compound 0.0316 µM) 107% and 110% (2×) and 97.4%; (compound 0.1 µM) 102% [middle of 4 runs].

Regarding `CC(Nc1ccc2c(c1)OCCn1cc(N3C(=O)OCC3C(F)F)nc1-2)C(N)=O` (configuration not stated), the viability, T/C was 91.3% [middle of 4 runs] (compound 0.0316 µM) and 69.9% [middle of 4 runs] (compound 1 µM).

As for `CC1(O)CCCC1n1c(=O)c(C(F)F)cc2cnc(NC3CCN(S(C)(=O)=O)CC3)nc21` (configuration not stated), the viability, T/C by setting is: (compound 0.0316 µM) 99.7% [middle of 4 runs]; (compound 10 µM) 3.53% [middle of 4 runs].

On to `CCC(CC)c1cc(NC2CCC(N)C2)n2nccc2n1` (configuration not stated), for which the viability, T/C by setting is: (compound 0.0316 µM) 104% [middle of 4 runs]; (compound 0.1 µM) 87.1% [middle of 4 runs]; (compound 0.316 µM) 103% [middle of 4 runs]; (compound 1 µM) 86.7% [middle of 4 runs]; (compound 3.16 µM) 2.99% [middle of 4 runs]; (compound 10 µM) 1.41% [middle of 4 runs]. For the same molecule, the half-maximal inhibitory concentration (IC50) (curve of compound) is 1.65 µM [middle of 4 runs].

For `CCN1CCN(Cc2ccc(Nc3ncc(F)c(-c4cc(F)c5nc(C)n(C(C)C)c5c4)n3)nc2)CC1`, the viability, T/C is, setting by setting: (compound 0.00316 µM) 104% (2×) and 108% and 116%; (compound 0.01 µM) 96.5% [middle of 4 runs]; (compound 0.0316 µM) 100% [middle of 4 runs]; (compound 0.1 µM) 103% [middle of 4 runs]; (compound 0.316 µM) 123% [middle of 4 runs]; (compound 1 µM) 96.6% [middle of 4 runs]. For the same molecule, the IC50 (curve of compound) was more than 1 µM.

As to `C[C@@H](NC(=O)c1ncnc(N)c1Cl)c1ncc(C(=O)Nc2cc(C(F)(F)F)c(Cl)cn2)s1`, the viability, T/C was 110% [middle of 4 runs] (compound 0.0316 µM); 99.7% [middle of 4 runs] (compound 0.1 µM); 95% [middle of 4 runs] (compound 0.316 µM); 103% [middle of 4 runs] (compound 1 µM); 100% [middle of 4 runs] (compound 3.16 µM); 95.4% [middle of 4 runs] (compound 10 µM). In addition, the IC50 (curve of compound) was more than 10 µM.

Turning to `Cc1nc(N2CCC3(CC2)COC(C)C3N)c(CO)nc1Sc1ccnc(N)c1Cl` (configuration not stated), the viability, T/C (compound 0.1 µM) is 92.8% [middle of 4 runs]; the viability, T/C (compound 0.316 µM) was 92.2% [middle of 4 runs]; the viability, T/C (compound 1 µM) is 93.8% [middle of 4 runs]; the viability, T/C (compound 10 µM) is 79.5% [middle of 4 runs]. For the same molecule, under “curve of compound”, the half-inhibitory concentration (IC50) is more than 10 µM.

As to `NC1c2ccccc2OC12CCN(c1cnc3c(N4CCCc5ncccc54)n[nH]c3n1)CC2` (configuration not stated), the viability, T/C reads like this: (compound 0.0316 µM) 100% [middle of 4 runs]; (compound 0.1 µM) 97.9% [middle of 4 runs]; (compound 10 µM) 51.5% [middle of 4 runs]. Also, the IC50 (curve of compound) is > 10 µM and 3.82 µM.

As for `Nc1ccn(C2OC(CO)C(O)C2(F)F)c(=O)n1` (configuration not stated), the viability, T/C (compound 0.00316 µM) is 105% [middle of 4 runs]; the viability, T/C (compound 0.01 µM) is 90.8% [middle of 4 runs]; the viability, T/C (compound 0.0316 µM) was 7.36% [middle of 4 runs]; the viability, T/C (compound 0.1 µM) is 5.6% [middle of 4 runs]; the viability, T/C (compound 0.316 µM) is 5.52% [middle of 4 runs]; the viability, T/C (compound 1 µM) was 5.95% [middle of 4 runs]. For the setting “curve of compound”, the IC50 was 17.6 nM [middle of 4 runs].

For the origin of these results see PubChem BioAssay AID2060894 (Molecular Pharmacology Branch, DTP, NCI, 2025).
